From ChEMBL document CHEMBL3817739, “Synthesis and cytotoxic evaluation of several oleanolic aciduracil/thymine conjugates” (Medchemcomm, 2016)

Assays:
[1] = Cytotoxicity against human PC3 cells assessed as inhibition of cell proliferation after 72 hrs by MTT assay; assay type: functional, cell-based, PC-3
[2] = Cytotoxicity against human BGC823 cells assessed as inhibition of cell proliferation after 72 hrs by MTT assay; assay type: functional, cell-based; conditions: BGC-823, 72 h
A549 = test: Cytotoxicity against human A549 cells assessed as inhibition of cell proliferation after 72 hrs by MTT assay; assay type: functional, cell-based; conditions: A549, 72 h
HepG2 = test: Cytotoxicity against human HepG2 cells assessed as inhibition of cell proliferation after 72 hrs by MTT assay; assay type: functional, cell-based; conditions: HepG2, 72 h
MCF7 = test: Cytotoxicity against human MCF7 cells assessed as inhibition of cell proliferation after 72 hrs by MTT assay; assay type: functional, cell-based; conditions: MCF7, 72 h
[3] = Homo sapiens, PC-3, 72 h, read-out: IC50

CC1(C)CC[C@]2(C(=O)OCCCCn3ccc(=O)n(CCCCOC(=O)[C@]45CCC(C)(C)C[C@H]4C4=CC[C@@H]6[C@@]7(C)CC[C@H](O)C(C)(C)[C@@H]7CC[C@@]6(C)[C@]4(C)CC5)c3=O)CC[C@]3(C)C(=CC[C@@H]4[C@@]5(C)CC[C@H](O)C(C)(C)[C@@H]5CC[C@]43C)[C@@H]2C1
IC50 [1, 3]: 4.79 µM
IC50 [2]: 0.15 µM
IC50 (A549): 4.09 µM
IC50 (HepG2): 3.95 µM
IC50 (MCF7): 130 µM

CC1(C)CC[C@]2(C(=O)OCCn3ccc(=O)[nH]c3=O)CC[C@]3(C)C(=CC[C@@H]4[C@@]5(C)CC[C@H](O)C(C)(C)[C@@H]5CC[C@]43C)[C@@H]2C1
IC50 [1, 3]: 9.61 µM
IC50 [2]: 0.37 µM
IC50 (A549): 0.36 µM
IC50 (HepG2): 15.2 µM
IC50 (MCF7): 45.9 µM

Cc1cn(CCCCCCCCOC(=O)[C@]23CCC(C)(C)C[C@H]2C2=CC[C@@H]4[C@@]5(C)CC[C@H](O)C(C)(C)[C@@H]5CC[C@@]4(C)[C@]2(C)CC3)c(=O)[nH]c1=O
IC50 [1, 3]: 0.23 µM
IC50 [2]: 0.29 µM
IC50 (A549): 1.11 µM
IC50 (HepG2): 8.72 µM
IC50 (MCF7): 16.1 µM

CC1(C)CC[C@]2(C(=O)OCCCCCCCCn3ccc(=O)n(CCCCCCCCOC(=O)[C@]45CCC(C)(C)C[C@H]4C4=CC[C@@H]6[C@@]7(C)CC[C@H](O)C(C)(C)[C@@H]7CC[C@@]6(C)[C@]4(C)CC5)c3=O)CC[C@]3(C)C(=CC[C@@H]4[C@@]5(C)CC[C@H](O)C(C)(C)[C@@H]5CC[C@]43C)[C@@H]2C1
IC50 [1, 3]: 22.2 µM
IC50 [2]: 0.27 µM
IC50 (A549): 37.1 µM
IC50 (HepG2): 10.3 µM
IC50 (MCF7): 3.78 µM

Cc1cn(CCOC(=O)[C@]23CCC(C)(C)C[C@H]2C2=CC[C@@H]4[C@@]5(C)CC[C@H](O)C(C)(C)[C@@H]5CC[C@@]4(C)[C@]2(C)CC3)c(=O)[nH]c1=O
IC50 [1, 3]: 1.93 µM
IC50 [2]: 0.16 µM
IC50 (A549): 35.1 µM
IC50 (HepG2): 5.41 µM
IC50 (MCF7): 10.2 µM

Cc1cn(CCCCCCOC(=O)[C@]23CCC(C)(C)C[C@H]2C2=CC[C@@H]4[C@@]5(C)CC[C@H](O)C(C)(C)[C@@H]5CC[C@@]4(C)[C@]2(C)CC3)c(=O)n(CCCCCCOC(=O)[C@]23CCC(C)(C)C[C@H]2C2=CC[C@@H]4[C@@]5(C)CC[C@H](O)C(C)(C)[C@@H]5CC[C@@]4(C)[C@]2(C)CC3)c1=O
IC50 [1, 3]: 0.87 µM
IC50 [2]: 0.62 µM
IC50 (A549): < 0.1 µM
IC50 (HepG2): 4.84 µM
IC50 (MCF7): 33.6 µM

Cc1cn(CCCCCCCCOC(=O)[C@@]23CCC(C)(C)C[C@@H]2C2=CC[C@H]4[C@]5(C)CC[C@@H](O)C(C)(C)[C@H]5CC[C@]4(C)[C@@]2(C)CC3)c(=O)n(CCCCCCCCOC(=O)[C@@]23CCC(C)(C)C[C@@H]2C2=CC[C@H]4[C@]5(C)CC[C@@H](O)C(C)(C)[C@H]5CC[C@]4(C)[C@@]2(C)CC3)c1=O
IC50 [1, 3]: 20 µM
IC50 [2]: 3.11 µM
IC50 (A549): < 0.1 µM
IC50 (HepG2): 4.83 µM
IC50 (MCF7): 4.45 µM

Cc1cn(CCCCOC(=O)[C@]23CCC(C)(C)C[C@H]2C2=CC[C@@H]4[C@@]5(C)CC[C@H](O)C(C)(C)[C@@H]5CC[C@@]4(C)[C@]2(C)CC3)c(=O)[nH]c1=O
IC50 [1, 3]: 0.43 µM
IC50 [2]: 1.13 µM
IC50 (A549): 4.73 µM
IC50 (HepG2): 2.41 µM
IC50 (MCF7): 1.03 µM

O=c1[nH]cc(F)c(=O)[nH]1 [FLUOROURACIL]
IC50 [1, 3]: 12.2 µM
IC50 [2]: 8.82 µM
IC50 (A549): 22.6 µM
IC50 (HepG2): 55.7 µM
IC50 (MCF7): 21.5 µM

CC1(C)CC[C@]2(C(=O)OCCCCCCn3ccc(=O)n(CCCCCCOC(=O)[C@]45CCC(C)(C)C[C@H]4C4=CC[C@@H]6[C@@]7(C)CC[C@H](O)C(C)(C)[C@@H]7CC[C@@]6(C)[C@]4(C)CC5)c3=O)CC[C@]3(C)C(=CC[C@@H]4[C@@]5(C)CC[C@H](O)C(C)(C)[C@@H]5CC[C@]43C)[C@@H]2C1
IC50 [1, 3]: 15.5 µM
IC50 [2]: 0.68 µM
IC50 (A549): 6.98 µM
IC50 (HepG2): 0.99 µM
IC50 (MCF7): < 0.1 µM

Cc1cn(CCOC(=O)[C@]23CCC(C)(C)C[C@H]2C2=CC[C@@H]4[C@@]5(C)CC[C@H](O)C(C)(C)[C@@H]5CC[C@@]4(C)[C@]2(C)CC3)c(=O)n(CCOC(=O)[C@]23CCC(C)(C)C[C@H]2C2=CC[C@@H]4[C@@]5(C)CC[C@H](O)C(C)(C)[C@@H]5CC[C@@]4(C)[C@]2(C)CC3)c1=O
IC50 [1, 3]: 1.16 µM
IC50 [2]: 1.89 µM
IC50 (A549): 0.79 µM
IC50 (HepG2): 5.19 µM
IC50 (MCF7): 3.02 µM

Cc1cn(CCCCOC(=O)[C@]23CCC(C)(C)C[C@H]2C2=CC[C@@H]4[C@@]5(C)CC[C@H](O)C(C)(C)[C@@H]5CC[C@@]4(C)[C@]2(C)CC3)c(=O)n(CCCCOC(=O)[C@]23CCC(C)(C)C[C@H]2C2=CC[C@@H]4[C@@]5(C)CC[C@H](O)C(C)(C)[C@@H]5CC[C@@]4(C)[C@]2(C)CC3)c1=O
IC50 [1, 3]: 1.28 µM
IC50 [2]: 16 µM
IC50 (A549): < 0.1 µM
IC50 (HepG2): 3.02 µM
IC50 (MCF7): 3.69 µM

Cc1cn(CCCCCCOC(=O)[C@]23CCC(C)(C)C[C@H]2C2=CC[C@@H]4[C@@]5(C)CC[C@H](O)C(C)(C)[C@@H]5CC[C@@]4(C)[C@]2(C)CC3)c(=O)[nH]c1=O
IC50 [1, 3]: 8.37 µM
IC50 [2]: 0.37 µM
IC50 (A549): < 0.1 µM
IC50 (HepG2): 5.09 µM
IC50 (MCF7): 4.01 µM

CC1(C)CC[C@]2(C(=O)O)CC[C@]3(C)C(=CC[C@@H]4[C@@]5(C)CC[C@H](O)C(C)(C)[C@@H]5CC[C@]43C)[C@@H]2C1 [OLEANOLIC_ACID]
IC50 [1, 3]: 72.7 µM
IC50 [2]: 23.7 µM
IC50 (A549): 16.3 µM
IC50 (HepG2): 15.9 µM
IC50 (MCF7): 12.6 µM

CC1(C)CC[C@]2(C(=O)OCCn3ccc(=O)n(CCOC(=O)[C@]45CCC(C)(C)C[C@H]4C4=CC[C@@H]6[C@@]7(C)CC[C@H](O)C(C)(C)[C@@H]7CC[C@@]6(C)[C@]4(C)CC5)c3=O)CC[C@]3(C)C(=CC[C@@H]4[C@@]5(C)CC[C@H](O)C(C)(C)[C@@H]5CC[C@]43C)[C@@H]2C1
IC50 ([1]; pc-3): Not Active
IC50 [2]: 0.86 µM
IC50 (A549): 9.21 µM
IC50 (HepG2): 111 µM
IC50 (MCF7): 29.8 µM

CC1(C)CC[C@]2(C(=O)OCCCCn3ccc(=O)[nH]c3=O)CC[C@]3(C)C(=CC[C@@H]4[C@@]5(C)CC[C@H](O)C(C)(C)[C@@H]5CC[C@]43C)[C@@H]2C1
IC50 [1, 3]: 1.45 µM
IC50 [2]: 0.93 µM
IC50 (A549): 0.11 µM
IC50 (HepG2): 4.21 µM
IC50 (MCF7): 70.4 µM

CC1(C)CC[C@]2(C(=O)OCCCCCCCCn3ccc(=O)[nH]c3=O)CC[C@]3(C)C(=CC[C@@H]4[C@@]5(C)CC[C@H](O)C(C)(C)[C@@H]5CC[C@]43C)[C@@H]2C1
IC50 [1, 3]: 20.9 µM
IC50 [2]: 14.9 µM
IC50 (A549): 8.47 µM
IC50 (HepG2): 1.05 µM
IC50 (MCF7): < 0.1 µM
